Consider 1 molecule from patent US4284620A, “N-(2-Hydroxyethyl)-2,4,6-triiodo-3,5-bis-(2-keto-L-gulonamido)benzamide and radiological compositions containing same” (Mallinckrodt, Inc., priority 1979, dated 1981).

The subject of series [1] is vascular and urinary systems. Put plainly: Radiographic visualization in mouse after intravenous injection. The class given is in vivo. Conditions: I.V. Here is the method:
A female mouse (19 g) was anesthetized with sodium pentobarbital (60 mg/kg, i/p.).

Series [2] has as its system subarachnoid space. Put plainly: Radiographic visualization in rat after intracisternal injection. The class given is in vivo. Particulars: 175 mg I/kg (37% I solution) intracisternally, 10 seconds after administration. Here is the method:
A pentobarbital-anesthetized rat (233 gm) received 175 mg I/kg (37% I solution) of the compound intracisternally.

Series [3] can be described thus: Solubility in water. The class given is physicochemical. Here is the method:
(§1) Nmr data are consistent with the assigned structure IX. The compound softens with darkening at 233°-238° and decomposes above 240°.
Elemental analysis; Calcd for C21 H26 I3 N3 O14 (after correction for 3.58% H2 O): C, 26.29; H, 3.13; I, 39.67; N, 4.38; Found: C, 26.20; H, 3.12; N, 4.09; I, not determined.

The test system of series [4] is Swiss mice. Put plainly: Acute Intracerebral Toxicity in Mice. Conditions: mice, intracerebral, 350-450 mg I/ml, seven day observation; 95% confidence limits 560-4806. An excerpt:
(§2) The following pharmacological studies were run on the N-(2-hydroxyethyl)-2,4,6-triiodo-3,5-bis-(2-keto-L-gulonamido)benzamide prepared according to Method B (PRODUCT).
(§3) Employing a slightly modified version of the technique developed by Haley and McCormick (Brit. J. Pharmacol. 12: 12-15, 1957), young adult male and female Swiss mice received injections of a solution of the PRODUCT directly into lateral ventricles and brain tissue.

A short description of series [5]: in vivo. Particulars: mouse, in vivo.
Source text: as §2, §3

Series [6] is described as follows: Acute Intracisternal Neurotoxicity in Dogs. Particulars: dog, in vivo; dogs, intracisternal, 244 mg I/kg; read-out: Respiratory arrest (death). Here is the method:
(§4) Adult dogs of either sex were employed for this procedure and were briefly anesthetized with thiopentol sodium during the injection of a solution of the PRODUCT. The compound was administered into cerebrospinal fluid at the cisterna magna at varying concentrations but at a constant 0.5 ml/kg volume dose. Animals were thereafter observed for neurotoxicity with the following results: […]

The subject of series [7] is dogs. Put plainly: Acute Intracisternal Neurotoxicity in Dogs. Conditions: dog, in vivo. Here is the method: as §4
In series [8] the test system is Swiss mice. Put plainly: Acute Intravenous Toxicity in Mice. Conditions: mice, intravenous, 400 mg I/ml, 1 ml/min, seven day observation; 95% confidence limits 16,499-20,075. The protocol:
as §2
(§5) A solution of the PRODUCT was injected into the lateral tail vein of yound adult male and female Swiss mice at a rate of 1 ml/min.

A short description of series [9]: in vivo. Particulars: mouse, in vivo, iv. The protocol: as §2, §5
Series [10] in a line: in vivo. Particulars: rat, in vivo.
Source text: as §2
(§6) A variation of the technique described by Melartin et al. (Invest. Radiol. 5: 13-21, 1970) was utilized to evaluate lethal effects of a solution of the PRODUCT after injection into cerebrospinal fluid at the cisterna magna. Young adult male and female Sprague Dawley rats were used. After dosing, the animals were housed individually and observed for immediate reactions and periodically for a two day observation period.

Series [11] has as its system Sprague Dawley rats. Nature of the series: Acute Intracisternal Toxicity in Rats. Conditions: rats, intracisternal, 400 mg I/ml, two day observation; 95% confidence limits 462-655.
Source text: as §2, §6

Series [12] can be described thus: Stability in aqueous solution by tlc and lc analysis. The class given is physicochemical. Here is the method: as §1

Converted amounts (≈) assume the structure as drawn. Like-named read-outs stand apart in the source and are kept apart here. Some results are limits rather than exact numbers.

Take `O=C(Nc1c(I)c(NC(=O)C(=O)[C@@H](O)[C@H](O)[C@@H](O)CO)c(I)c(C(=O)NCCO)c1I)C(=O)[C@@H](O)[C@H](O)[C@@H](O)CO` [IX, N-(2-Hydroxyethyl)-2,4,6-triiodo-3,5-bis-(2-keto-L-gulonamido)benzamide]: the “visualization of the vascular system, whole body left lateral radiograph” value in series [1] (female mouse, 10,000 mg I/kg (37% I solution), 5 seconds after administration) is “good visualization of the vascular system”. Further, the “images of the vascular system, posteroanterior radiograph” value in series [1] (mouse, 30 seconds after contrast administration) was “good images of the vascular”. Further, the “images of the urinary system, posteroanterior radiograph” value in series [1] (mouse, 5 minutes after contrast administration) was “good images of the vascular and urinary systems”. The “visualization of the subarachnoid space in the upper cervical, cisternal and basal cistern regions” value in [2] is “good visualization of the subarachnoid space”. The solubility in [3] (Method A product, read-out: highly water soluble) was ≥ 1000 mg/mL; in [3] (Method B product, read-out: solubility), 1000 mg/mL (≈ 1080 mM). Besides, the figures for the LD50 in [4], in series [8] and in [11] were 1,640 mg I/kg, 18,200 mg I/kg and 550 mg I/kg, respectively. In addition, the results for the LD50 at 168 h in series [5] and in series [9] were 3980 mg/kg and 44200 mg/kg, respectively. Moreover, in series [6], the mortality was 50%. Besides, in [7], the “Minimum Convulsion Dose” value is > 244 mg I/kg. Further, the LD50 at 48 h in series [10] was 1340 mg/kg. The “stable in aqueous solution” value in series [12] is “stable in aqueous solution”.
